In PubChem BioAssay (NCI):
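Cultured in 96-well plates, cells were exposed to test compound for 48 hours across five concentrations. The concentration for 50% growth inhibition is given as GI50. TGI: total growth inhibition.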

Legend:
Experiment in all cases: growth of human tumour cells (NCI), 48 h
786-0 renal = system: 786-0 renal
A498 renal = system: A498 renal
A549 NSCLC = system: A549 NSCLC
ACHN renal = system: ACHN renal
BT-549 breast = system: BT-549 breast
CAKI-1 renal = system: CAKI-1 renal
CCRF-CEM leukemia = system: CCRF-CEM leukemia
COLO 205 colon = system: COLO 205 colon
DU-145 prostate = system: DU-145 prostate
HCC-2998 colon = system: HCC-2998 colon
HCT-116 colon = system: HCT-116 colon
HCT-15 colon = system: HCT-15 colon
HL-60(TB) leukemia = system: HL-60(TB) leukemia
HOP-62 NSCLC = system: HOP-62 NSCLC
HS 578T breast = system: HS 578T breast
HT29 colon = system: HT29 colon
IGROV1 ovarian = system: IGROV1 ovarian
K-562 leukemia = system: K-562 leukemia
KM12 colon = system: KM12 colon
LOX IMVI melanoma = system: LOX IMVI melanoma
M14 melanoma = system: M14 melanoma
MALME-3M melanoma = system: MALME-3M melanoma
MCF7 breast = system: MCF7 breast
MDA-MB-231 breast = system: MDA-MB-231 breast
MDA-MB-435 = system: MDA-MB-435
MOLT-4 leukemia = system: MOLT-4 leukemia
NCI-H226 lung = system: NCI-H226 lung
NCI-H23 lung = system: NCI-H23 lung
NCI-H460 lung = system: NCI-H460 lung
NCI-H522 lung = system: NCI-H522 lung
NCI/ADR-RES ovarian = system: NCI/ADR-RES ovarian
OVCAR-3 ovarian = system: OVCAR-3 ovarian
OVCAR-4 ovarian = system: OVCAR-4 ovarian
OVCAR-5 ovarian = system: OVCAR-5 ovarian
OVCAR-8 ovarian = system: OVCAR-8 ovarian
PC-3 prostate = system: PC-3 prostate
RPMI-8226 leukemia = system: RPMI-8226 leukemia
RXF 393 renal = system: RXF 393 renal
SF-268 CNS = system: SF-268 CNS
SF-295 CNS = system: SF-295 CNS
SF-539 CNS = system: SF-539 CNS
SK-MEL-2 melanoma = system: SK-MEL-2 melanoma
SK-MEL-28 melanoma = system: SK-MEL-28 melanoma
SK-MEL-5 melanoma = system: SK-MEL-5 melanoma
SK-OV-3 ovarian = system: SK-OV-3 ovarian
SN12C renal = system: SN12C renal
SNB-19 CNS = system: SNB-19 CNS
SNB-75 CNS = system: SNB-75 CNS
SR leukemia = system: SR leukemia
SW-620 colon = system: SW-620 colon
T-47D breast = system: T-47D breast
TK-10 renal = system: TK-10 renal
U251 CNS = system: U251 CNS
UACC-257 melanoma = system: UACC-257 melanoma
UACC-62 melanoma = system: UACC-62 melanoma
UO-31 renal = system: UO-31 renal

COc1cc(/C=C/c2cc(C(F)(F)F)[nH]c(=O)n2)ccc1OCc1ccccc1F
GI50 (786-0 renal): 16.2 µM
TGI (786-0 renal): 33.1 µM
GI50 (A498 renal): 1.73 µM
TGI (A498 renal): 8.6 µM
GI50 (A549 NSCLC): 6.97 µM
TGI (A549 NSCLC): 40.3 µM
GI50 (ACHN renal): 12.7 µM
TGI (ACHN renal): 38.7 µM
GI50 (BT-549 breast): 5.04 µM
TGI (BT-549 breast): 20.6 µM
GI50 (CAKI-1 renal): 11.3 µM
TGI (CAKI-1 renal): 42.3 µM
GI50 (CCRF-CEM leukemia): 3.94 µM
TGI (CCRF-CEM leukemia): 26.3 µM
GI50 (COLO 205 colon): 19.1 µM
TGI (COLO 205 colon): 33.9 µM
GI50 (DU-145 prostate): 9.8 µM
TGI (DU-145 prostate): 23.3 µM
GI50 (HCC-2998 colon): 15.5 µM
TGI (HCC-2998 colon): 30.1 µM
GI50 (HCT-116 colon): 7.12 µM
TGI (HCT-116 colon): 19.6 µM
GI50 (HCT-15 colon): 5.22 µM
TGI (HCT-15 colon): 28.3 µM
GI50 (HL-60(TB) leukemia): 9.25 µM
TGI (HL-60(TB) leukemia): 68.2 µM
GI50 (HOP-62 NSCLC): 10.3 µM
TGI (HOP-62 NSCLC): 25 µM
GI50 (HS 578T breast): 32 µM
TGI (HS 578T breast): > 100 µM
GI50 (HT29 colon): 21.5 µM
TGI (HT29 colon): 43.6 µM
GI50 (IGROV1 ovarian): 12.4 µM
TGI (IGROV1 ovarian): 42 µM
GI50 (K-562 leukemia): 7.55 µM
TGI (K-562 leukemia): 98.8 µM
GI50 (KM12 colon): 11.8 µM
TGI (KM12 colon): 26.2 µM
GI50 (LOX IMVI melanoma): 8.57 µM
TGI (LOX IMVI melanoma): 22 µM
GI50 (M14 melanoma): 12.5 µM
TGI (M14 melanoma): 26.1 µM
GI50 (MALME-3M melanoma): 13.9 µM
TGI (MALME-3M melanoma): 43.1 µM
GI50 (MCF7 breast): 4.13 µM
TGI (MCF7 breast): 17.3 µM
GI50 (MDA-MB-231 breast): 13.1 µM
TGI (MDA-MB-231 breast): 53 µM
GI50 (MDA-MB-435): 3.77 µM
TGI (MDA-MB-435): 17 µM
GI50 (MOLT-4 leukemia): 7.27 µM
TGI (MOLT-4 leukemia): 38 µM
GI50 (NCI-H226 lung): 11.9 µM
TGI (NCI-H226 lung): 43.2 µM
GI50 (NCI-H23 lung): 10.5 µM
TGI (NCI-H23 lung): 31.9 µM
GI50 (NCI-H460 lung): 4.44 µM
TGI (NCI-H460 lung): 39.3 µM
GI50 (NCI-H522 lung): 5.62 µM
TGI (NCI-H522 lung): 20.4 µM
GI50 (NCI/ADR-RES ovarian): 14.7 µM
TGI (NCI/ADR-RES ovarian): > 100 µM
GI50 (OVCAR-3 ovarian): 4.72 µM
TGI (OVCAR-3 ovarian): 17.4 µM
GI50 (OVCAR-4 ovarian): 7.6 µM
TGI (OVCAR-4 ovarian): 67.9 µM
GI50 (OVCAR-5 ovarian): 16.5 µM
TGI (OVCAR-5 ovarian): 30.9 µM
GI50 (OVCAR-8 ovarian): 8.85 µM
TGI (OVCAR-8 ovarian): 48.8 µM
GI50 (PC-3 prostate): 9.06 µM
TGI (PC-3 prostate): 29 µM
GI50 (RPMI-8226 leukemia): 3.85 µM
TGI (RPMI-8226 leukemia): 27.1 µM
GI50 (RXF 393 renal): 2.4 µM
TGI (RXF 393 renal): 8.78 µM
GI50 (SF-268 CNS): 17.9 µM
TGI (SF-268 CNS): > 100 µM
GI50 (SF-295 CNS): 5.07 µM
TGI (SF-295 CNS): 22 µM
GI50 (SF-539 CNS): 3.68 µM
TGI (SF-539 CNS): 13.8 µM
GI50 (SK-MEL-2 melanoma): 12.1 µM
TGI (SK-MEL-2 melanoma): 28.2 µM
GI50 (SK-MEL-28 melanoma): 9.27 µM
TGI (SK-MEL-28 melanoma): 24.7 µM
GI50 (SK-MEL-5 melanoma): 6.97 µM
TGI (SK-MEL-5 melanoma): 20.2 µM
GI50 (SK-OV-3 ovarian): 16.3 µM
TGI (SK-OV-3 ovarian): 50.8 µM
GI50 (SN12C renal): 7.04 µM
TGI (SN12C renal): 32.6 µM
GI50 (SNB-19 CNS): 11.5 µM
TGI (SNB-19 CNS): 30.1 µM
GI50 (SNB-75 CNS): 21 µM
TGI (SNB-75 CNS): 56.7 µM
GI50 (SR leukemia): 4.17 µM
TGI (SR leukemia): 43.3 µM
GI50 (SW-620 colon): 7.97 µM
TGI (SW-620 colon): 28.3 µM
GI50 (T-47D breast): 9.98 µM
TGI (T-47D breast): 63.1 µM
GI50 (TK-10 renal): 18 µM
TGI (TK-10 renal): 39.1 µM
GI50 (U251 CNS): 5.23 µM
TGI (U251 CNS): 18.5 µM
GI50 (UACC-257 melanoma): 7.51 µM
TGI (UACC-257 melanoma): 31.3 µM
GI50 (UACC-62 melanoma): 7.57 µM
TGI (UACC-62 melanoma): 21.6 µM
GI50 (UO-31 renal): 13 µM
TGI (UO-31 renal): 29.4 µM
